Test results from patent publication US11001590B2, “Pyrazolopyrimidine derivatives” (BAYER ANIMAL HEALTH GMBH, priority 2016, dated 2021).

Key:
[1] = test system: Dirofilaria immitis microfilariae; assay: In vitro assay 3: Dirofilaria immitis microfilariae (DIROIM L1), motility; details: 72 h, reduction of motility vs negative control, 72 h incubation
[2] = log P by HPLC on reversed phase columns (Method L0; [a] acidic, [b] neutral range)
Description: Calibration was done with straight-chain alkan-2-ones (with 3 to 16 carbon atoms) with known log P values (measurement of log P values using retention times with linear interpolation between successive alkanones). Lambda-max-values were determined using UV-spectra from 200 nm to 400 nm and the peak values of the chromatographic signals.

[3] = molecular target: C. elegans Slo-1a (Caenorhabditis elegans, UniProt Q95V25); assay: In vitro assay 1: C. elegans Slo-1a, action at a recombinant C. elegans CHO cell line (membrane potential measurement)
C. elegans Slo-1a, sequence (Q95V25 whole entry): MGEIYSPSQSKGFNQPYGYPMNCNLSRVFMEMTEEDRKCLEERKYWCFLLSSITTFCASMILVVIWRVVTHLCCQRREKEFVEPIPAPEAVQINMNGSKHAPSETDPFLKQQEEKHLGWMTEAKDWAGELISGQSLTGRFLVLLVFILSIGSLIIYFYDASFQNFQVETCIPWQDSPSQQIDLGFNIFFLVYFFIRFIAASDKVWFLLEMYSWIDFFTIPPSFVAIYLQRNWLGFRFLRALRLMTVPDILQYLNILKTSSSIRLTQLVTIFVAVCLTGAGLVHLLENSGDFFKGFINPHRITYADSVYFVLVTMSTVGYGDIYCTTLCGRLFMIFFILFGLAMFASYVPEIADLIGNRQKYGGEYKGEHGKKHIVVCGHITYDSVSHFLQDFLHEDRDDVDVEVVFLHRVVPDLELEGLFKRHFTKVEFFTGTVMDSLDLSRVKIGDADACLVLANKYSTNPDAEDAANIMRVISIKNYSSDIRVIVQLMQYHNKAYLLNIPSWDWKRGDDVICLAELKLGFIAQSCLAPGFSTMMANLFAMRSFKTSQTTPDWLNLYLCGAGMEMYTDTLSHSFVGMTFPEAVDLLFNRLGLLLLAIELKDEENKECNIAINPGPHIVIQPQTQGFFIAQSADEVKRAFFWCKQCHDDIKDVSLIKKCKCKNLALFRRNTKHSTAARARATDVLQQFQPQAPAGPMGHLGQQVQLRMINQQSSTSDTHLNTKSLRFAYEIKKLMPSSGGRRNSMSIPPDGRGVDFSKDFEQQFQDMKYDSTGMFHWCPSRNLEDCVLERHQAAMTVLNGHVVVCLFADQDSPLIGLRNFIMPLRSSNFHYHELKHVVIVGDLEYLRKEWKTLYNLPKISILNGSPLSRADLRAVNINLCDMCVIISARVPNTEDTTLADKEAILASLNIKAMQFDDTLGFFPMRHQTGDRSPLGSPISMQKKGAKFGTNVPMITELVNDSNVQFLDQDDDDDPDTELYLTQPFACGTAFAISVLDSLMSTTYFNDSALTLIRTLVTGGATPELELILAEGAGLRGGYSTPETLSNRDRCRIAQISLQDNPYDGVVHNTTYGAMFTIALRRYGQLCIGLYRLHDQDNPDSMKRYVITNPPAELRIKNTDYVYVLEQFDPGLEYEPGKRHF

[4] = test system: Litomosoides sigmodontis third-stage larvae; assay: In vitro assay 7: Litomosoides sigmodontis L3 (LTMOSI), motility; details: 72 h, reduction of motility vs negative control, 72 h incubation
Description: In Vitro Assay 7: Litomosoides Siqmodontis L3 (LTMOSI)
10 Litomosoides sigmodontis third-stage larvae, which were freshly isolated from the pleural cavity of an infected rodent, were added to wells of a microtitre plate containing a nutrient medium and the test compound in DMSO. Compounds were tested in concentration-response assay in duplicate. Larvae exposed to DMSO and no test compounds were used as negative controls. Larvae were evaluated after 72 h of incubation with the compound. Efficacy was determined as the reduction of motility in comparison to the negative control. Based on the evaluation of a wide concentration range, concentration-response curves as well as ECso-values were calculated.

[5] = test system: Dirofilaria immitis third-stage larvae; assay: In vitro assay 4: Dirofilaria immitis (DIROIM L4), motility of larvae; details: 72 h

Structure (SMILES) | EC50 [1] | chromatographic logP [2] | EC50 [3] | EC50 [4] | EC50 [5]
Cc1nn2c(C(C)C)c(C(=O)N[C@H]3CCOc4ccccc43)cnc2c1-c1ccccc1F [Example 92] | < 0.1 µg/mL | 4.18 | 6.31 nM | < 0.1 µg/mL | < 0.1 µg/mL
Cc1nn2c(C(C)C)c(C(=O)N[C@H]3CCc4ccccc43)cnc2c1-c1ccccc1F [Example 95] | < 0.1 µg/mL | 4.41 | 6.31 nM | < 0.1 µg/mL | < 0.1 µg/mL
Cc1nn2c(C(C)C)c(C(=O)N[C@H]3CCCc4ccccc43)cnc2c1-c1c(F)cccc1F [Example 98] | < 0.1 µg/mL | 4.67 | 12.6 nM | < 0.1 µg/mL | < 0.1 µg/mL
Cc1nn2c(C(C)C)c(C(=O)N[C@H]3CCc4ccccc43)cnc2c1-c1c(F)cccc1F [Example 99] | < 0.1 µg/mL | 4.37 | 10 nM | < 0.1 µg/mL | < 0.1 µg/mL
Cc1nn2c(C(C)C)c(C(=O)N[C@H]3CCOc4ccccc43)cnc2c1-c1ccc(F)c(F)c1 [Example 100] | < 0.1 µg/mL | 4.56 | 7.94 nM | < 0.1 µg/mL | < 0.1 µg/mL
Cc1nn2c(C(C)C)c(C(=O)N[C@H]3CCc4ccccc43)cnc2c1-c1ccc(F)c(F)c1 [Example 103] | < 0.1 µg/mL | 4.82 | 20 nM | < 0.1 µg/mL | < 0.1 µg/mL
Cc1nn2c(C(C)C)c(C(=O)N[C@H]3CCOc4ccccc43)cnc2c1-c1ccccc1Cl [Example 107] | < 0.1 µg/mL | 4.37 | 5.01 nM | < 0.1 µg/mL | < 0.1 µg/mL
Cc1nn2c(C(C)C)c(C(=O)N[C@H]3CCc4ccccc43)cnc2c1-c1cc(F)ccc1F [Example 116] | < 0.1 µg/mL | 4.59 | 10 nM | < 0.1 µg/mL | < 0.1 µg/mL
Cc1nn2c(C(C)C)c(C(=O)N[C@H]3CCOc4ccccc43)cnc2c1-c1cccc(Cl)c1 [Example 117] | < 0.1 µg/mL | 4.87 | 5.01 nM | < 0.1 µg/mL | < 0.1 µg/mL
Cc1nn2c(C(C)C)c(C(=O)N[C@H]3CCOc4ccccc43)cnc2c1-c1cc(F)ccc1F [Example 121] | < 0.1 µg/mL | 4.41 | 6.31 nM | < 0.1 µg/mL | < 0.1 µg/mL
Cc1nn2c(C(C)C)c(C(=O)N[C@H]3CCCc4ccccc43)cnc2c1-c1c(F)cccc1Cl [Example 131] | < 0.1 µg/mL | 5.02 | 7.94 nM | < 0.1 µg/mL | < 0.1 µg/mL
Cc1nn2c(C(C)C)c(C(=O)N[C@H]3CCc4ccccc43)cnc2c1-c1c(F)cccc1Cl [Example 132] | < 0.1 µg/mL | 4.71 | 6.31 nM | < 0.1 µg/mL | < 0.1 µg/mL
Cc1nn2c(C(C)C)c(C(=O)N[C@H]3CCCc4ccccc43)cnc2c1-c1cccc(F)c1F [Example 134] | < 0.1 µg/mL | 4.9 | 12.6 nM | < 0.1 µg/mL | < 0.1 µg/mL
Cc1nn2c(C(C)C)c(C(=O)N[C@H]3CCc4ccccc43)cnc2c1-c1cccc2c1OC(F)(F)O2 [Example 147] | < 0.1 µg/mL | 5.17 | 50.1 nM | < 0.1 µg/mL | < 0.1 µg/mL
Cc1nn2c(C(C)C)c(C(=O)N[C@H]3CCOc4ccccc43)cnc2c1-c1cccc(C(F)F)c1 [Example 153] | < 0.1 µg/mL | 4.41 | 126 nM | < 0.1 µg/mL | < 0.1 µg/mL
Cc1nn2c(C(C)C)c(C(=O)N[C@H]3CCOc4ccccc43)cnc2c1-c1c(Cl)cccc1Cl [Example 154] | < 0.1 µg/mL | 4.56 | 6.31 nM | < 0.1 µg/mL | < 0.1 µg/mL
Cc1nn2c(C(C)C)c(C(=O)N[C@H]3CCc4ccccc43)cnc2c1-c1cccc(Cl)c1Cl [Example 168] | < 0.1 µg/mL | 5.13 | 3.16 nM | < 0.1 µg/mL | < 0.1 µg/mL
Cc1nn2c(C(C)C)c(C(=O)N[C@H]3CCCc4ccccc43)cnc2c1-c1cccc(Cl)c1Cl [Example 169] | < 0.1 µg/mL | 5.46 | 6.31 nM | < 0.1 µg/mL | < 0.1 µg/mL
Cc1nn2c(C(C)C)c(C(=O)N[C@H]3CCc4ccccc43)cnc2c1-c1cc(Cl)ccc1Cl [Example 171] | < 0.1 µg/mL | 5.31 | 5.01 nM | < 0.1 µg/mL | < 0.1 µg/mL
Cc1nn2c(C(C)C)c(C(=O)N[C@H]3CCOc4ccccc43)cnc2c1-c1cc(Cl)ccc1Cl [Example 173] | < 0.1 µg/mL | 5 | 3.98 nM | < 0.1 µg/mL | < 0.1 µg/mL

Structure (SMILES) | EC50 [1] | chromatographic logP [2] | EC50 [3] | EC50 [4] | EC50 [5]
Cc1nn2c(C(C)C)c(C(=O)N[C@H]3CCOc4ccccc43)cnc2c1-c1cccc(F)c1Cl [Example 191] | < 0.1 µg/mL | 4.46 | 1.26 nM | < 0.1 µg/mL | < 0.1 µg/mL
Cc1ccccc1-c1c(C)nn2c(C(C)C)c(C(=O)N[C@H]3CCOc4ccccc43)cnc12 [Example 193] | < 0.1 µg/mL | 4.44 | 0.794 nM | < 0.1 µg/mL | < 0.1 µg/mL
CCC(C)c1c(C(=O)N[C@H]2CCOc3ccccc32)cnc2c(-c3c(F)cccc3Cl)c(C)nn12 (some centres unmarked) [Example 226] | < 0.1 µg/mL | 4.72 | 20 nM | < 0.1 µg/mL | < 0.1 µg/mL
COCc1cccc(-c2c(C)nn3c(C(C)C)c(C(=O)N[C@H]4CCc5ccccc54)cnc23)c1 [Example 300] | < 1 µg/mL | 4.43 | 6.31 nM | < 0.1 µg/mL | < 0.1 µg/mL
Cc1nn2c(C(C)C)c(C(=O)N[C@H]3CCc4ccccc43)cnc2c1-c1ccc(F)cc1 [Example 302] | < 0.1 µg/mL | 4.63 | 12.6 nM | < 0.1 µg/mL | < 0.1 µg/mL
Cc1nn2c(C(C)C)c(C(=O)N[C@H]3CCc4ccccc43)cnc2c1-c1cc(F)cc(F)c1 [Example 323] | < 0.1 µg/mL | 5.02 | 39.8 nM | < 0.1 µg/mL | < 1 µg/mL
Cc1nn2c(C(C)C)c(C(=O)N[C@H]3CCc4ccccc43)cnc2c1-c1cc(F)cc(Cl)c1 [Example 324] | < 0.1 µg/mL | 5.49 | 31.6 nM | < 0.1 µg/mL | < 0.1 µg/mL
COc1cc(F)cc(-c2c(C)nn3c(C(C)C)c(C(=O)N[C@H]4CCc5ccccc54)cnc23)c1 [Example 325] | < 0.1 µg/mL | 4.8 | 20 nM | < 0.1 µg/mL | < 0.1 µg/mL
Cc1nn2c(C(C)C)c(C(=O)N[C@H]3CCc4ccccc43)cnc2c1-c1cccc(OC(F)F)c1 [Example 337] | < 0.1 µg/mL | 4.7 | 12.6 nM | < 0.1 µg/mL | < 1 µg/mL
Cc1nn2c(C3CC3)c(C(=O)N[C@H]3CCc4ccccc43)cnc2c1-c1ccccc1Cl [Example 349] | < 0.1 µg/mL | 3.88 | 2.51 nM | < 0.1 µg/mL | < 0.1 µg/mL
COc1cccc(-c2c(C)nn3c(C4CC4)c(C(=O)N[C@H]4CCc5ccccc54)cnc23)c1 [Example 351] | < 0.1 µg/mL | 3.74 | 3.98 nM | < 0.1 µg/mL | < 0.1 µg/mL
Cc1nn2c(C3CC3)c(C(=O)N[C@H]3CCc4ccccc43)cnc2c1-c1cccc(Cl)c1 [Example 352] | < 0.1 µg/mL | 4.38 | 6.31 nM | < 0.1 µg/mL | < 0.1 µg/mL
Cc1nn2c(C3CC3)c(C(=O)N[C@H]3CCc4ccccc43)cnc2c1-c1cccc(F)c1 [Example 353] | < 0.1 µg/mL | 3.95 | 7.94 nM | < 0.1 µg/mL | < 1 µg/mL
Cc1nn2c(C3CC3)c(C(=O)N[C@H]3CCc4ccccc43)cnc2c1-c1ccccc1F [Example 357] | < 0.1 µg/mL | 3.67 | 6.31 nM | < 0.1 µg/mL | < 0.1 µg/mL
COc1cccc(-c2c(C)nn3c(C(C)C)c(C(=O)N[C@H]4CCOc5ccccc54)cnc23)c1 [Example 395] | < 0.1 µg/mL | 4.24 | 7.94 nM | < 0.1 µg/mL | < 0.1 µg/mL
Cc1nn2c(C(C)C)c(C(=O)N[C@H]3CCOc4ccccc43)cnc2c1-c1cccc(F)c1 [Example 396] | < 0.1 µg/mL | 4.45 | 15.8 nM | < 0.1 µg/mL | < 0.1 µg/mL
Cc1nn2c(C(C)C)c(C(=O)N[C@H]3CCOc4ccccc43)cnc2c1-c1cncc(Cl)c1 [Example 402] | < 0.1 µg/mL | 3.91 | 20 nM | < 0.1 µg/mL | < 0.1 µg/mL
Cc1nn2c(C3CC3)c(C(=O)N[C@H]3CCc4ccccc43)cnc2c1-c1c(F)cccc1F [Example 405] | < 0.1 µg/mL | 3.66 | 3.16 nM | < 0.1 µg/mL | < 0.1 µg/mL
Cc1nn2c(C3CC3)c(C(=O)N[C@H]3CCc4ccccc43)cnc2c1-c1cc(F)ccc1F [Example 422] | < 0.1 µg/mL | 3.84 | 3.98 nM | < 0.1 µg/mL | < 0.1 µg/mL
Cc1nn2c(C3CC3)c(C(=O)N[C@H]3CCc4ccccc43)cnc2c1-c1cccc(F)c1F [Example 424] | < 0.1 µg/mL | 3.84 | 2.51 nM | < 0.1 µg/mL | < 0.1 µg/mL
